Source: ChEMBL document CHEMBL1201862, “PubChem BioAssay data set” (2004)
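Cells were grown in 96-well plates and exposed to each compound for 48 hours at five concentrations; endpoints were interpolated linearly between bracketing concentrations, or set to the highest concentration if not reached. Here, GI50 denotes the concentration required for 50% inhibition of growth.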 Active and inactive are the calls of the source. Rule as the data show it: active = GI50 up to about 1.1 µM and inactive = higher.

What was measured:
Test in all cases: growth of human tumour cells (NCI), 48 h
[1] = system: U-251
[2] = system: MCF7
[3] = system: HL-60
[4] = system: SK-MEL-2
[5] = system: DU-145
[6] = system: NCI-H460
[7] = system: OVCAR-8
[8] = system: EKVX
[9] = system: NCI-H226
[10] = system: MOLT-4
[11] = system: SF-539
[12] = system: HCT-116
[13] = system: ACHN
[14] = system: SF-295
[15] = system: SN12C
[16] = system: HT-29
[17] = system: HOP-62
[18] = system: PC-3
[19] = system: Hs-578T
[20] = system: M19-MEL

Measured: GI50

O=C(CCc1ccc(O)c(O)c1)NCCc1ccccc1
inactive: [1] 75 µM | [2] 15.1 µM | [3] 6.58 µM | [4] 32.7 µM | [5] > 88.1 µM | [6] > 91.2 µM | [7] > 47.5 µM | [8] > 94.2 µM | [9] 99.8 µM | [10] 12.7 µM | [11] > 47.8 µM | [12] 26.4 µM | [13] 22 µM | [14] > 91.2 µM | [15] > 31.6 µM | [16] > 45.3 µM | [17] > 100 µM | [18] > 37.2 µM | [19] > 82.6 µM

O=C1CC(c2c[nH]c3ccccc23)C(=O)N1c1ccccc1 (stereo unspecified)
inactive: [1] > 100 µM | [3] > 100 µM | [4] > 100 µM | [6] > 100 µM | [7] > 100 µM | [8] > 100 µM | [9] > 100 µM | [10] > 100 µM | [20] > 100 µM | [11] > 100 µM | [12] > 100 µM | [13] > 100 µM | [14] > 100 µM | [16] > 100 µM | [17] > 100 µM

N#CCCN(c1ccc(-c2nnc(NC(=O)CNNC(=O)CC(=O)Nc3ccccc3)s2)cc1)S(=O)(=O)c1ccccc1
inactive: [1] > 100 µM | [3] 39.4 µM | [4] > 100 µM | [6] > 100 µM | [7] > 100 µM | [8] > 100 µM | [9] 59.3 µM | [10] 45.3 µM | [20] > 100 µM | [11] > 100 µM | [12] 71.1 µM | [13] > 100 µM | [14] > 100 µM | [15] > 100 µM | [16] > 100 µM | [17] > 100 µM

Cn1cnc([N+](=O)[O-])c1Sc1nnc(-c2ccc(Cl)cc2)n1C
inactive: [1] 16.3 µM | [4] 15.5 µM | [6] 20.7 µM | [7] 17.5 µM | [8] 5.79 µM | [9] 21.2 µM | [10] 6.78 µM | [20] 14.1 µM | [11] 16.2 µM | [12] 13.1 µM | [13] 15.1 µM | [14] 50 µM | [15] 14.7 µM | [16] 15 µM | [17] > 100 µM

CC(=O)N(C(C)=O)c1ncc(-n2nc(-c3ccccc3)cc2-c2ccccc2)c(-c2ccccc2)n1
inactive: [1] > 10 µM | [2] 5.07 µM | [3] 7.83 µM | [4] > 10 µM | [5] > 10 µM | [6] > 10 µM | [7] > 10 µM | [8] > 10 µM | [9] > 10 µM | [10] 5.22 µM | [11] > 10 µM | [12] 4.82 µM | [13] > 10 µM | [14] > 10 µM | [15] > 10 µM | [16] 4.65 µM | [17] > 10 µM | [18] > 10 µM | [19] > 10 µM

Cc1cc(C)n(C2=NS(=O)(=O)c3ccccc3N2C)n1
inactive: [1] > 100 µM | [2] > 100 µM | [3] > 100 µM | [4] > 100 µM | [5] > 100 µM | [6] > 100 µM | [7] > 100 µM | [8] > 100 µM | [9] > 100 µM | [10] > 100 µM | [11] > 100 µM | [12] > 100 µM | [13] > 100 µM | [14] > 100 µM | [15] > 100 µM | [16] > 100 µM | [17] > 100 µM | [18] > 100 µM | [19] > 100 µM

Cc1nc(N)c(N2CCN(S(N)(=O)=O)CC2)c(O)n1
inactive: [1] > 100 µM | [2] > 100 µM | [3] > 100 µM | [4] > 100 µM | [5] > 100 µM | [6] > 100 µM | [7] > 100 µM | [8] > 100 µM | [9] > 100 µM | [10] > 100 µM | [11] > 100 µM | [12] > 100 µM | [13] > 100 µM | [14] > 100 µM | [15] > 100 µM | [16] > 100 µM | [17] > 100 µM | [18] > 100 µM | [19] > 100 µM

CC1=CCP(C(F)(F)F)P(C(F)(F)F)C1 (stereo unspecified)
inactive: [1] > 100 µM | [3] > 100 µM | [6] > 100 µM | [7] > 100 µM | [8] > 100 µM | [9] > 100 µM | [10] > 100 µM | [20] > 100 µM | [11] > 100 µM | [12] > 100 µM | [13] > 100 µM | [14] > 100 µM | [15] > 100 µM | [16] > 100 µM | [17] > 100 µM

COc1ccc2c3c([nH]c2c1CC=C(C)C)C(=O)C=C(C)C3=O
inactive: [1] > 25 µM | [3] > 25 µM | [4] > 25 µM | [6] > 25 µM | [7] > 25 µM | [8] > 25 µM | [9] > 25 µM | [10] 18.5 µM | [20] 11.6 µM | [11] > 25 µM | [12] 16.2 µM | [13] > 25 µM | [14] > 25 µM | [15] > 25 µM | [16] > 25 µM | [17] > 25 µM

O=[N+]([O-])c1ccc(C(O)/C(=N/O)c2nc3ccc(Cl)cc3nc2O)cc1 (stereo unspecified)
inactive: [1] > 100 µM | [3] > 100 µM | [4] > 100 µM | [6] > 100 µM | [7] > 100 µM | [8] > 100 µM | [10] > 100 µM | [20] > 100 µM | [11] > 100 µM | [12] > 100 µM | [13] > 100 µM | [14] > 100 µM | [15] > 100 µM | [16] > 100 µM | [17] > 100 µM

COc1cc([C@@H]2c3cc4c(cc3[C@@H](OC(=O)c3ccc(N)cc3)C3COC(=O)[C@@H]32)OCO4)cc(OC)c1O (stereo partly specified)
inactive: [1] 4.45 µM | [3] 3.1 µM | [4] 6.32 µM | [6] 3.73 µM | [7] 4.49 µM | [8] 20.2 µM | [9] 6.97 µM | [10] 3.1 µM | [20] 4.99 µM | [11] 2.54 µM | [12] 4.45 µM | [13] 7.74 µM | [14] 4.25 µM | [15] 4.21 µM | [16] 3.21 µM | [17] 3.5 µM

Cc1ccc(NC(=O)CCC(=O)C2Cc3ccccc3C2=O)cc1C (stereo unspecified)
inactive: [1] > 100 µM | [3] > 100 µM | [4] > 100 µM | [6] > 100 µM | [7] > 100 µM | [8] > 100 µM | [9] > 100 µM | [10] > 100 µM | [20] > 100 µM | [11] > 100 µM | [12] > 100 µM | [13] > 100 µM | [14] > 100 µM | [15] > 100 µM | [16] > 100 µM | [17] > 100 µM

COc1ccc(CN2C(=O)C(Cc3cc(OC)c(OC)c(C)c3OC)N(C(=O)OC(C)C)C(=O)/C2=C/c2cc(OC)c(OC)c(C)c2OC)cc1 (stereo unspecified)
inactive: [1] > 100 µM | [3] 7.96 µM | [4] 49.1 µM | [6] 18.4 µM | [7] > 100 µM | [8] 50.8 µM | [9] 14.8 µM | [10] 5.94 µM | [20] > 100 µM | [11] > 100 µM | [12] 66.2 µM | [13] > 100 µM | [14] > 100 µM | [15] > 100 µM | [16] > 100 µM | [17] > 100 µM

O=C1NC2(O)c3ccccc3C(=O)C2(O)N1c1ccccc1 (stereo unspecified)
inactive: [1] > 100 µM | [3] > 100 µM | [4] > 100 µM | [6] > 100 µM | [7] > 100 µM | [8] > 100 µM | [10] > 100 µM | [20] > 100 µM | [11] > 100 µM | [12] > 100 µM | [14] > 100 µM | [16] > 100 µM

Oc1ccc(Cn2c(-c3ccc(O)c(O)c3)nc3ccccc32)cc1O
inactive: [1] 5.09 µM | [2] 30.1 µM | [3] 16.8 µM | [4] 18.4 µM | [5] 24.5 µM | [6] 15.8 µM | [7] 7.76 µM | [8] 27.9 µM | [9] 7.43 µM | [10] 2.52 µM | [11] 7.45 µM | [12] 4.72 µM | [13] 10.9 µM | [14] 23.6 µM | [15] 10.1 µM | [16] 30.3 µM | [17] 14 µM | [18] 22.1 µM | [19] 5.79 µM

CC(C)=CCN1c2ccccc2[C@@]2(CC=C(C)C)CCN(C)[C@@H]12 [(+)-DEBROMOFLUSTRAMINE B]
inactive: [1] 18.2 µM | [2] 17.3 µM | [3] 16.1 µM | [4] 14 µM | [5] 45.2 µM | [6] 14.8 µM | [7] 28.2 µM | [8] 21.2 µM | [9] 44.2 µM | [10] 25.6 µM | [11] 24.3 µM | [12] 23.6 µM | [13] 32.5 µM | [14] 21 µM | [15] 27.4 µM | [16] 19.5 µM | [17] 19.2 µM | [18] 27 µM | [19] 22 µM
